Target: Tyrosine-protein kinase Fgr (Homo sapiens) (UniProt P09769)
Experiment: FGR kinase inhibition, dose response, biochemical, Z'-LYTE, FRET readout, direct format (AID 1671277)
Settings: Z'-LYTE FRET kinase activity, recombinant FGR

Sequence of Tyrosine-protein kinase Fgr (Homo sapiens) (P09769 whole entry, looked up): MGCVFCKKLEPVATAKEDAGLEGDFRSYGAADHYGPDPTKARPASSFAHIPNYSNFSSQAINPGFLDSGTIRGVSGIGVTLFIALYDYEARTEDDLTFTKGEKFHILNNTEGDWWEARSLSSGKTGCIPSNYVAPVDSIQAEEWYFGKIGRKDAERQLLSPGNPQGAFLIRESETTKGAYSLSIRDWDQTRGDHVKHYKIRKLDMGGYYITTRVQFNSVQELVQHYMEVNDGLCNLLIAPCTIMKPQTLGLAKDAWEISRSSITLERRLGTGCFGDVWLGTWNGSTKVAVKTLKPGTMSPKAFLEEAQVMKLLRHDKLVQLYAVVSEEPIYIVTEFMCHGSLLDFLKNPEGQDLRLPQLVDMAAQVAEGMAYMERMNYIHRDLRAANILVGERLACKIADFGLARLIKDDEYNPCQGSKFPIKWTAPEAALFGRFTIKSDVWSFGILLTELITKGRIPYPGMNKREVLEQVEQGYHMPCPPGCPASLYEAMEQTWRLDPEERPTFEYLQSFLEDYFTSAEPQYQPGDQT

- IC50: 919 nM
SMILES: COc1cc2ncnc(Nc3cccc(Cl)c3)c2cc1OC
